# Patent US20070185176A1, “Heparanase inhibitors and uses thereof” (Insight Bioharmaceuticals Ltd., priority 2004, published 2007)
# pIC50: −log10 of the molar value.
# Experiments:
# HT1080 cells = test: In vitro assay of invasion inhibition (BD BioCoat Angiogenesis System, matrigel); assay type: cell-based, human; conditions: for Invasion: HT1080 cells through matrigel, non-toxic concentration, 22 hours
# Protocol: (c) In Vitro Assay of Invasion Inhibition by Heparanase Inhibitors
# The ability of the compounds of the invention to inhibit cell invasion was determined quantitatively by the in vitro Endothelial Cell Migration assay using a BD BioCoat Angiogenesis System kit. The kit consists of a 24-multiwell insert plate (FluoroBlok, BD Falcon) containing a microporous (3.0 μm pore size) polyethylene terephthalate (PET) membrane that is capable of blocking fluorescence completely (>99% efficiency). This membrane is uniformly coated with matrigel (BD Matrigel Matrix). The uniform layer of matrigel matrix serves as a reconstituted authentic basement membrane in vitro, providing a true barrier to non-invasive cells, but allowing endothelial cells to attach to the membrane and freely migrate towards an angiogenic stimulus in the lower chamber of the insert plate. Post-labeling the cells with a fluorescent dye and measuring the fluorescence of invading cells in a fluorescent plate reader, provides quantitative measurement of cell invasion.
# To cover the optimal seeding density for HT1080 cells, suspensions containing various cell concentrations were prepared: 1 ml of 3×10^5 cells/ml, 8 ml of 1.5×10^5 cells/ml and 1 ml of 0.75×10^5 cells/ml. The top chambers of each well in the inserts was filled with 0.25 ml cell-suspension, […] DMEM containing 5% fetal calf serum and an inhibitor solution. The plates were incubated for 22 hours at 37° C. and 8% CO2 atmosphere. At the end of incubation, the medium was aspirated from the upper chambers, and the insert was transferred into a second 24-well plate containing 0.5 ml/well of the fluorescent dye Calcein AM solution (4 μg/ml per plate, prepared from 50 μg Calcein AM dissolved in 20 μl DMSO and 12.5 ml of warm HBSS medium), and incubated for 90 minutes at 37° C., 8% CO2 atmosphere. Fluorescence of invaded cells was read in a fluorescence plate reader with bottom read capabilities at excitation/emission wavelength of 485/530 nm, without further manipulation. Only those labeled cells that have invaded the matrigel and passed through the pores of the PET membrane, were detected.
# [1] = target: T1, human recombinant heparanase (h-hpa) (Homo sapiens, UniProt Q9Y251); test: In vitro dimethylmethylene blue (DMB) assay for heparanase activity
# T1 sequence (Q9Y251 158-543 limits assumed): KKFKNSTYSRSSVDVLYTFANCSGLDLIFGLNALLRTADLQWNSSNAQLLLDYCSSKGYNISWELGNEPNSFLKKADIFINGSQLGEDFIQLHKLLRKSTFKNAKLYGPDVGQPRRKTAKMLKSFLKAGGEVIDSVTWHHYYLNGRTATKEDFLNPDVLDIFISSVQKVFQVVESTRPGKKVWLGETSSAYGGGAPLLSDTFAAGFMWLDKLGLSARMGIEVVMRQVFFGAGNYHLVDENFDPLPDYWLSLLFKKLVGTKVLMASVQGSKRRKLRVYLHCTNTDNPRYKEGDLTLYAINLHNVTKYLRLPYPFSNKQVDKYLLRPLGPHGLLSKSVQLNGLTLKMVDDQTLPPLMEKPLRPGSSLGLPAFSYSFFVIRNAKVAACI
# T1 sequence (Q9Y251 36-109 limits assumed): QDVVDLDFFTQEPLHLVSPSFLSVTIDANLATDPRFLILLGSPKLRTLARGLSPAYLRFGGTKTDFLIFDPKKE
# Protocol: (a) In Vitro Dimethylmethylene Blue (DMB) Assay for Heparanase Activity
# Heparin Sepharose CL-6B beads were added up to the top of the wells of a multiscreen column loader (Millipore). A 96-well multiscreen plate containing 0.65 μm hydrophilic, low protein binding, Durapore membrane (Millipore) was placed, upside down, on top of the multiscreen column loader. The column loader and the multiscreen plate were held together, turned over, and the beads were uniformly transferred from the column loader to the multiscreen plate (Millipore, MADVM 650). Double-distilled water (DDW) was then added to the beads, which were allowed to swell for one minute, and then washed (three times) with DDW under vacuum. Heparin concentration was estimated to be 10 μM/well.
# To each well, phosphate-buffered saline (PBS) containing 1% bovine serum albumin (BSA; 70 μl/well) and DMB (32 mg of DMB were dissolved in 5 ml ethanol, diluted to 1 liter with formate buffer containing 4 g sodium formate and 4 ml formic acid; 120 μl/well) were added. Color was developed after 5 minutes, and the absorbance of the samples was determined using a microplate reader (Spectra Max, Molecular Devices) at 530 nm with 570 nm as reference. The absorbance correlated to heparanase activity. As a control, heparanase was added to the heparin Sepharose swollen beads in the multiscreen plate and the heparanase reaction products were filtered immediately thereafter and the absorbance of these control samples was subtracted from all other samples.
# The cell extracts were centrifuged and resuspended in 20 mM phosphate citrate buffer, pH 5.4 containing 50 mM NaCl. The cells were lysed by three cycles of freezing and thawing. The cell lysates were centrifuged (10000×g for 5 min), supernatants were collected and then assayed for heparanase activity using the DMB assay.
# The partially purified human recombinant heparanase or the crude cell extracts expressing either human or mouse recombinant heparanase were added for a 3-hour incubation and the reaction continued as described above. Absorbance of the developing color was measured as described above.
Compound,Invasion (HT1080 cells),pIC50 [1],inhibition of cell invasion (HT1080 cells)
CCCCCCCCCCCCCCCCCC(=O)NC1=NN(c2ccc(Oc3ccccc3)c(S(=O)(=O)O)c2)C(=O)C1/N=N/c1cc(C(=O)OC)ccc1O (stereo not shown) [Compound 18],yes,6.54,
CCCCCCCCCCCCCCCCCCN(C(=O)c1ccc2ccccc2c1O)c1cc(C(=O)O)cc(C(=O)O)c1 [Compound 3],yes,6.42,effective inhibitors of cell invasion
CCCCCCCCCCCCCCCCOc1ccccc1C1C=NN(c2ccc(S(=O)(=O)O)cc2)C1=O (stereo not shown) [Compound 28],yes,6.00,
CCCCCCCCCCCCCCCCCC(=O)NC1=NN(c2ccc(Oc3ccccc3)c(S(=O)(=O)O)c2)C(=O)C1/N=N/c1cc(C(=O)O)c(O)cc1Cl (stereo not shown) [Compound 9],yes,6.80,
CCCCCCCCCCCCCCCCCC1=NN(c2ccc(Oc3ccccc3)c(S(=O)(=O)O)c2)C(=O)C1 [Compound 29],yes,6.49,
CCCCCCCCCCCCCCCCCC1=NN(c2ccc(Oc3ccccc3)c(S(=O)(=O)O)c2)C(=O)C1/N=N/c1ccc(O)c(OC)c1 (stereo not shown) [Compound 15],yes,6.60,
CCCCCCCCCCCCCCCCCC1=NN(c2ccc(Oc3ccccc3)cc2S(=O)(=O)O)C(=O)C1/N=N/c1ccc(OC)cc1 (stereo not shown) [Compound 19],yes,6.49,
CCCCCCCCCCCCCCCCCC(=O)Nc1nn(-c2ccc(Oc3ccccc3)c(S(=O)(=O)O)c2)c(O)c1/N=N/c1c(C)nn(CCCCCCCCCC)c1C [Compound 32],yes,6.62,
CCCCCCCCCCCCCCCCCC1=Nn2c(nc3c(C(=O)O)cc(S(=O)(=O)O)cc32)C1 [Compound 4],yes,5.92,
CCCCCCCCCCCCCCCCCC1=NN(c2ccc(Oc3ccccc3)c(S(=O)(=O)O)c2)C(=O)C1C(C)C (stereo not shown) [Compound 30],yes,6.80,
CCCCCCCCC(CCCCCCCC)C1=NN(c2cccc(S(=O)(=O)O)c2)C(=O)C1 [Compound 17],yes,5.57,
CCCCCCCCCCCCCCCCCC(=O)NC1=NN(c2ccc(Oc3ccccc3)c(S(=O)(=O)O)c2)C(=O)C1 [Compound 1],yes,,effective inhibitors of cell invasion
CCCCCCCCCCCCCCCCCC1=NN(c2ccc(Oc3ccccc3)c(S(=O)(=O)O)c2)C(=O)C1/N=N/c1cccc(O)c1 (stereo not shown) [Compound 16],yes,6.66,
CCCCCCCCCCCCCCCc1ccc(OC(CC)C(=O)NCCCNC(=O)c2ccc3ccccc3c2O)cc1 (stereo not shown) [Compound 31],yes,6.28,
CCCCCCCCCCCCCCCCCC(=O)NC1=NN(c2ccc(Oc3ccccc3)c(S(=O)(=O)O)c2)C(=O)C1/N=N/c1c(C)nn(C)c1C (stereo not shown) [Compound 22],yes,6.19,
CCCCCCCCCCCCCCCCCC(=O)NNC(=O)CC(=O)Nc1ccccc1C(=O)O [Compound 2],yes,5.77,effective inhibitors of cell invasion

Compound,Invasion (HT1080 cells),pIC50 [1],inhibition of cell invasion (HT1080 cells)
CCCCCCCCCCCCCCCCCCN(C(=O)c1cc(Br)c2ccccc2c1O)c1cc(C(=O)O)cc(C(=O)O)c1 [Compound 43],yes,6.26,
CCCCCCCCCCCCCCCCCC1=NN(c2ccc(Oc3ccccc3)c(S(=O)(=O)O)c2)C(=O)C1/N=N/c1c(C)n[nH]c1C (stereo not shown) [Compound 12],yes,6.62,
CCCCCCCCCCCCCCCCCCN(C)c1ccc(S(=O)(=O)O)cc1NC(=O)c1cc(/N=N/c2cc(NS(=O)(=O)c3ccc(C)cc3)ccc2Cl)c2ccccc2c1O [Compound 52],,6.13,
CCCCCCCCCCCCCCCCCCN(C)c1ccc(S(=O)(=O)O)cc1NC(=O)c1cc(/N=N/c2cc(-c3ccccc3)ccc2O)c2ccccc2c1O [Compound 34],,6.51,
CCCCCCCCCCCCCCCCCCOc1ccc(S(=O)(=O)Nc2cccc(S(=O)(=O)N/N=C3\N(C)c4ccccc4C3(C)C)c2)cc1C(=O)O [Compound 59],,6.31,
CCCCCCCCCCCCCCCCCC1=NN(c2ccc(Oc3ccccc3)c(S(=O)(=O)O)c2)C(=O)C1/N=N/c1ccc(N(CC)CC)cc1 (stereo not shown) [Compound 10],yes,6.59,
CCCCCCCCCCCCCCCCS(=O)(=O)c1ccc(N2N=C(NC(=O)c3ccccc3S(=O)(=O)O)C(/N=N\c3ccc(O)cc3Cl)C2=O)cc1 (stereo not shown) [Compound 54],,6.70,
CCCCCCCCCCCCCCCCCCNc1ccc(C(=O)O)cc1NC(=O)c1cc(/N=N/c2ccc(NS(=O)(=O)c3ccc(C)cc3)cc2C)c2ccccc2c1O [Compound 63],,4.77,
CCCCCCCCCCCCCCCC1=NN(c2ccc(S(=O)(=O)O)cc2)C(=O)C1Br (stereo not shown) [Compound 13],yes,6.00,
CCCCCCCCCCCCCCCCCC1=NN(c2ccc(Oc3ccccc3)c(S(=O)(=O)O)c2)C(=O)C1/N=N/c1ccc(NC(C)=O)cc1 (stereo not shown) [Compound 26],,6.89,
CCCCCCCCCCCCCCCCCCn1c(-c2ccccc2)nc2cc(S(=O)(=O)O)ccc21 [Compound 102],,6.20,
CCCCCCCCCCCCCCCCCC1=NN(c2ccc(Oc3ccc(OCC)cc3)c(S(=O)(=O)O)c2)C(=O)C1 [Compound 24],yes,6.20,
CCCCCCCCCCCCCCCCCCN(C)c1ccc(S(=O)(=O)O)cc1NC(=O)c1cc(O)c2ccccc2c1 [Compound 77],,6.47,
CCCCCCCCCCCCCCCCS(=O)(=O)c1ccc(S(=O)(=O)O)cc1C(=O)O [Compound 89],,5.26,
O=C(O)CCCCCCCCCCN1C(=O)/C(=C/c2cccc(Br)c2)SC1=S [Compound 81],,4.74,
CCCCCCCCCCCC1SC1CCCCC(=O)Nc1cc(C(=O)O)ccc1Oc1cc(C(=O)O)cc(C(=O)O)c1 (stereo not shown) [Compound 92],,6.30,
